Experimental findings from patent publication US20250205344A1, “2,4-DIOXOTETRAHYDROPYRIMIDINYL DERATIVES AS DEGRONS IN PROTACS” (GLAXOSMITHKLINE INTELLECTUAL PROPERTY DEVELOPMENT LIMITED, priority 2022, published 2025) are described below.

The target of this assay is T1, Androgen Receptor (Homo sapiens, UniProt P10275, T878A).
T1 construct: the AR gene was modified, using CRISPR/Cas9 editing, so the expressed AR protein included an 11 amino acid HiBiT tag; endogenous in cells; host or cells: clonal LnCaP-derived line, AR gene edited by CRISPR/Cas9
T1 sequence (P10275 whole entry T878A): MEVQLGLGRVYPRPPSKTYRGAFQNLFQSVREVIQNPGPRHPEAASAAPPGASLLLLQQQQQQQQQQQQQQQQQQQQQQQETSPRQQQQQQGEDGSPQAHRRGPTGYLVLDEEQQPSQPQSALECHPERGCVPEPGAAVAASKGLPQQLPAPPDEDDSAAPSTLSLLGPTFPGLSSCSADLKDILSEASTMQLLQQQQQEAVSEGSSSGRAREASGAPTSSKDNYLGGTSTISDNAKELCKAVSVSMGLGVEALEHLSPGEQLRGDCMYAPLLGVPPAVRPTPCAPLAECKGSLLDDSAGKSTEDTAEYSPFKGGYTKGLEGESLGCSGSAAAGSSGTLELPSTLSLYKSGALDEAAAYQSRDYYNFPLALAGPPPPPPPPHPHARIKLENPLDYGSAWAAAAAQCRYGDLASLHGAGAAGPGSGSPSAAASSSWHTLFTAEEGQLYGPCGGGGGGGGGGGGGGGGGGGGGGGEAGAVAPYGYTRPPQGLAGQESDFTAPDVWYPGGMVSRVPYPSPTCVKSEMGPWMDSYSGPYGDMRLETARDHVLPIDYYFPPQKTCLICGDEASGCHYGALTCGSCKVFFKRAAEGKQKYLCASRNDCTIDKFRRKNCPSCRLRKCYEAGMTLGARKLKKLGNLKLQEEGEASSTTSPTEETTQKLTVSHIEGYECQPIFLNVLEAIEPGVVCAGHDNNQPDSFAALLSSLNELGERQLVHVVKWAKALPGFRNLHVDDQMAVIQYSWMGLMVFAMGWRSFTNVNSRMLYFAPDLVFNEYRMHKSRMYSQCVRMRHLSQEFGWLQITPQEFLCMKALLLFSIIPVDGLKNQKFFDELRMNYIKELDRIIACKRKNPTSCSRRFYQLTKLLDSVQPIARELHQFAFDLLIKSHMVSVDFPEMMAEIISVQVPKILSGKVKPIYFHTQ
T1 sequence (Q96SW2 whole entry partner): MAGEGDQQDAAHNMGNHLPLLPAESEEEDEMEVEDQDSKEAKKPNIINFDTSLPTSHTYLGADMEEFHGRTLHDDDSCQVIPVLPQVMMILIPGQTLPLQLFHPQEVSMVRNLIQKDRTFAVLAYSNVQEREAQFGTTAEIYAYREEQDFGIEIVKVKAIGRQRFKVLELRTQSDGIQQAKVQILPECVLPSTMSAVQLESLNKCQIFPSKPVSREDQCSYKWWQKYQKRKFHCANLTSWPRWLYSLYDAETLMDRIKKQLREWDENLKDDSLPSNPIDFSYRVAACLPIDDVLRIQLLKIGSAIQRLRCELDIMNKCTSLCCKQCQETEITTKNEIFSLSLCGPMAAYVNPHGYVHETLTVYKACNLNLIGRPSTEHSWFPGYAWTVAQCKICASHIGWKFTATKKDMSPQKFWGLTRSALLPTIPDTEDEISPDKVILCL
T1 sequence (Q16531 whole entry partner): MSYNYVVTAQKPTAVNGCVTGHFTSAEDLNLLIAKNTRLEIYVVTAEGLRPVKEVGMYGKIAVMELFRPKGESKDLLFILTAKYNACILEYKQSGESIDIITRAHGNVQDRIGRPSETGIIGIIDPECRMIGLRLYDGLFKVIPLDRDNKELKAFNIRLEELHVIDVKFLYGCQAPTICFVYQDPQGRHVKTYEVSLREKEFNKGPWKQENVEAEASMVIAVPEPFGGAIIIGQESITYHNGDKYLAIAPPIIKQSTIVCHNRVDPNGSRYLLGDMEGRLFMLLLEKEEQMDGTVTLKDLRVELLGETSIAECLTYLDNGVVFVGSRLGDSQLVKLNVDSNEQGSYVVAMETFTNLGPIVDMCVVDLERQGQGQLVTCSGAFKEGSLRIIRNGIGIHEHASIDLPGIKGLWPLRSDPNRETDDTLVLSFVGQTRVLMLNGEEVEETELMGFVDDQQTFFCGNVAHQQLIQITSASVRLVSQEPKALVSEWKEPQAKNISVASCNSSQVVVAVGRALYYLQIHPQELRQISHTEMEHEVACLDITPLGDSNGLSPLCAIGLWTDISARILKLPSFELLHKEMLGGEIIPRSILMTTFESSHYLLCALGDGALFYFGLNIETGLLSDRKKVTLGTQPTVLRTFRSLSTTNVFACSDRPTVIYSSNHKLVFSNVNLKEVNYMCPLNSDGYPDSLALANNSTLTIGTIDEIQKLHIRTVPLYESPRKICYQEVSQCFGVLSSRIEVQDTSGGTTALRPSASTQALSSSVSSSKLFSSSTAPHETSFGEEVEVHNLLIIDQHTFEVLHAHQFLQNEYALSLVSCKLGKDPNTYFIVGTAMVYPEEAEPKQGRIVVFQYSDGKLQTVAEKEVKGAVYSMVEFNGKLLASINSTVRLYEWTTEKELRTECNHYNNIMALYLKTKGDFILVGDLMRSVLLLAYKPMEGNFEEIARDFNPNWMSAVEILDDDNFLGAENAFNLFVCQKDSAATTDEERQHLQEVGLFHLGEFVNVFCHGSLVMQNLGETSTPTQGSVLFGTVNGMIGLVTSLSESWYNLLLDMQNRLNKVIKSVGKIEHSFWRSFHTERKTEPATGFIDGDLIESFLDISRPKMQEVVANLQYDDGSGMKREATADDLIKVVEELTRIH
The assay can be described thus: Androgen Receptor Degradation Assay (Nano-Glo HiBiT). The following applies: HiBiT-tagged AR in human LnCaP cells, 18 h; for Dmax: LNCaP, read-out: mean asymptote max. The format is cell-based. A digest of the protocol:
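LnCaP cells with CRISPR-knocked-in N-terminal HiBiT-tagged AR (10,000/well) treated 18 h at 37 °C with PROTACs over 11 threefold concentrations; lytic HiBiT luminescence normalised to DMSO (0%) and cell-free (100%) controls. Relative DC50 = 4-parameter fit inflection; absolute DC50 = 50% degradation interpolation; Dmax = maximum observed degradation.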
In general terms: HiBiT is a short tag that completes a luciferase, so light tracks the accessible tagged protein.

Counter-ions that a name gives are not always drawn.

As to `CC1(C)[C@H](NC(=O)c2ncc(N3CCC(CN4CCC(n5ncc6c(N7CCC(=O)NC7=O)nccc65)CC4)CC3)cn2)C(C)(C)[C@H]1Oc1ccc(C#N)c(Cl)c1` [EAR273, N-((1r,3r)-3-(3-Chloro-4-cyanophenoxy)-2,2,4,4-tetramethylcyclobutyl)-5-(4-((4-(4-(2,4-dioxotetrahydropyrimidin-1(2H)-yl)-1H-pyrazolo[4,3-c]pyridin-1-yl)piperidin-1-yl)methyl)piperidin-1-yl)pyrimidine-2-carboxamide], the “mean relative pDC50” value is 5.67 and the Dmax is no less than 50%.
Regarding `N#Cc1ccc(O[C@H]2CC[C@H](NC(=O)c3ccc(N4C[C@]5(CN6CCC(n7ncc8c(N9CCC(=O)NC9=O)cccc87)CC6)C[C@]5(C(F)(F)F)C4)nn3)CC2)cc1Cl` [EAR244, N-((1r,4R)-4-(3-chloro-4-cyanophenoxy)cyclohexyl)-6-((1R,5R)-1-((4-(4-(2,4-dioxotetrahydropyrimidin-1(2H)-yl)-1H-indazol-1-yl)piperidin-1-yl)methyl)-5-(trifluoromethyl)-3-azabicyclo[3.1.0]hexan-3-yl)pyridazine-3-carboxamide], the Dmax is no less than 50%.
For `N#Cc1ccc(O[C@H]2CC[C@H](NC(=O)c3cnc(N4CCC(CN5CCC(n6ccc7c(N8CCC(=O)NC8=O)cccc76)CC5)CC4)cn3)CC2)cc1Cl` [EAR9, N-((1r,4r)-4-(3-Chloro-4-cyanophenoxy)cyclohexyl)-5-(4-((4-(4-(2,4-dioxotetrahydropyrimidin-1(2H)-yl)-1H-indol-1-yl)piperidin-1-yl)methyl)piperidin-1-yl)pyrazine-2-carboxamide], the Dmax is no less than 50%.
Still for that read-out and setting: the value for `N#Cc1ccc(O[C@H]2CC[C@H](NC(=O)c3ccc(N4CCC(CN5CCC(n6ncc7c(N8CCC(=O)NC8=O)nccc76)CC5)CC4)nn3)CC2)cc1C(F)(F)F` [EAR209, N-((1r,4r)-4-(4-cyano-3-(trifluoromethyl)phenoxy)cyclohexyl)-6-(4-((4-(4-(2,4-dioxotetrahydropyrimidin-1(2H)-yl)-1H-pyrazolo[4,3-c]pyridin-1-yl)piperidin-1-yl)methyl)piperidin-1-yl)pyridazine-3-carboxamide] was no less than 50%; that for `N#Cc1ccc(O[C@H]2CC[C@H](NC(=O)c3cccc(C4CCN(C(=O)CN5CCC(n6ccc7c(N8CCC(=O)NC8=O)cccc76)CC5)CC4)c3)CC2)cc1Cl` [AR3, N-((1r,4r)-4-(3-Chloro-4-cyanophenoxy)cyclohexyl)-3-(1-(2-(4-(4-(2,4-dioxotetrahydropyrimidin-1(2H)-yl)-1H-indol-1-yl)piperidin-1-yl)acetyl)piperidin-4-yl)benzamide] was no less than 50%.
Same read-out and setting: the value for `N#Cc1ccc(O[C@H]2CC[C@H](NC(=O)c3ccc(N4CCC(CN5CCC(n6ccc7c(N8CCC(=O)NC8=O)cccc76)CC5)CC4)cn3)CC2)cc1Cl` [EAR186, N-((1r,4r)-4-(3-Chloro-4-cyanophenoxy)cyclohexyl)-5-(4-((4-(4-(2,4-dioxotetrahydropyrimidin-1(2H)-yl)-1H-indol-1-yl)piperidin-1-yl)methyl)piperidin-1-yl)picolinamide] was no less than 50%.
On the same count and under the same terms, the value for `C[C@@H]1CN(c2ccc(C#N)c(Cl)c2)[C@@H](C)CN1C(=O)Nc1cnc(N2CCC(CN3CCC(n4ccc5c(N6CCC(=O)NC6=O)cncc54)CC3)CC2)nc1` [EAR106, (2R,5S)-4-(3-Chloro-4-cyanophenyl)-N-(2-(4-((4-(4-(2,4-dioxotetrahydropyrimidin-1(2H)-yl)-1H-pyrrolo[2,3-c]pyridin-1-yl)piperidin-1-yl)methyl)piperidin-1-yl)pyrimidin-5-yl)-2,5-dimethylpiperazine-1-carboxamide] was no less than 50%.
In the case of `CC(C)n1ccc2c(N3CCC(=O)NC3=O)cc(C(=O)NCCOCCN3CCN(c4ccc(C(=O)N[C@H]5CC[C@H](Oc6ccc(C#N)c(Cl)c6)CC5)nn4)CC3)cc21` [EAR76, N-(2-(2-(4-(6-(((1r,4r)-4-(3-Chloro-4-cyanophenoxy)cyclohexyl)carbamoyl)pyridazin-3-yl)piperazin-1-yl)ethoxy)ethyl)-4-(2,4-dioxotetrahydropyrimidin-1(2H)-yl)-1-isopropyl-1H-indole-6-carboxamide], the Dmax was no less than 50%.
Still for that read-out and setting: the result for `N#Cc1ccc(O[C@H]2CC[C@H](NC(=O)c3ccc(N4CC5(CC(CN6CCC(n7ncc8c(N9CCC(=O)NC9=O)cccc87)CC6)C5)C4)nn3)CC2)cc1Cl` [EAR224, N-((1r,4r)-4-(3-chloro-4-cyanophenoxy)cyclohexyl)-6-(6-((4-(4-(2,4-dioxotetrahydropyrimidin-1(2H)-yl)-1H-indazol-1-yl)piperidin-1-yl)methyl)-2-azaspiro[3.3]heptan-2-yl)pyridazine-3-carboxamide] reads no less than 50%; that for `CC1(C)[C@H](NC(=O)c2cnc(N3CCC(CN4CCC(n5ccc6c(N7CCC(=O)NC7=O)cccc65)CC4)CC3)cn2)C(C)(C)[C@H]1Oc1ccc(C#N)c(Cl)c1` [AR8, N-((1r,3r)-3-(3-Chloro-4-cyanophenoxy)-2,2,4,4-tetramethylcyclobutyl)-5-(4-((4-(4-(2,4-dioxotetrahydropyrimidin-1(2H)-yl)-1H-indol-1-yl)piperidin-1-yl)methyl)piperidin-1-yl)pyrazine-2-carboxamide], no less than 50%; that for `N#Cc1ccc(O[C@H]2CC[C@H](NC(=O)c3ccc(N4CCC(CN5CCC(n6ncc7c(N8CCC(=O)NC8=O)cccc76)CC5)CC4)nc3)CC2)cc1Cl` [EAR42, N-((1r,4r)-4-(3-Chloro-4-cyanophenoxy)cyclohexyl)-6-(4-((4-(4-(2,4-dioxotetrahydropyrimidin-1(2H)-yl)-1H-indazol-1-yl)piperidin-1-yl)methyl)piperidin-1-yl)nicotinamide hydrochloride], no less than 50%.
On to `C[C@@H]1CN(c2ccc(C#N)c(Cl)c2)[C@@H](C)CN1C(=O)Nc1ccc(OCCCCN2CCC(n3ccc4c(N5CCC(=O)NC5=O)cccc43)CC2)nc1` [EAR109, (2R,5S)-4-(3-Chloro-4-cyanophenyl)-N-(6-(4-(4-(4-(2,4-dioxotetrahydropyrimidin-1(2H)-yl)-1H-indol-1-yl)piperidin-1-yl)butoxy)pyridin-3-yl)-2,5-dimethylpiperazine-1-carboxamide], for which the Dmax was no less than 50%.
On the same count and under the same terms, the result for `CC1(C)C(=O)N(c2ccc(C#N)c(C(F)(F)F)c2)C(=S)N1c1ccc(N2CCC(N3CCC(n4ccc5c(N6CCC(=O)NC6=O)cncc54)CC3)CC2)cc1` [EAR96, 4-(3-(4-(4-(4-(2,4-Dioxotetrahydropyrimidin-1(2H)-yl)-1H-pyrrolo[2,3-c]pyridin-1-yl)-[1,4′-bipiperidin]-1′-yl)phenyl)-4,4-dimethyl-5-oxo-2-thioxoimidazolidin-1-yl)-2-(trifluoromethyl)benzonitrile formate] reads no less than 50%; that for `N#Cc1ccc(O[C@H]2CC[C@H](NC(=O)c3ccc(N4CC[C@H](CN5CCC(n6ncc7c(N8CCC(=O)NC8=O)cccc76)CC5)C4)nn3)CC2)cc1Cl` [EAR238, N-((1r,4R)-4-(3-chloro-4-cyanophenoxy)cyclohexyl)-6-((R)-3-((4-(4-(2,4-dioxotetrahydropyrimidin-1(2H)-yl)-1H-indazol-1-yl)piperidin-1-yl)methyl)pyrrolidin-1-yl)pyridazine-3-carboxamide], no less than 50%; that for `N#Cc1ccc(O[C@H]2CC[C@H](NC(=O)c3ccc(N4CCC[C@H](CN5CCC(n6ncc7c(N8CCC(=O)NC8=O)cccc76)CC5)C4)nn3)CC2)cc1Cl` (single isomer, unassigned) [EAR136], no less than 50%.
Still for that read-out and setting: the result for `N#Cc1ccc(O[C@H]2CC[C@H](NC(=O)c3ccc(N4CCC(CN5CCC(n6ncc7c(N8CCC(=O)NC8=O)ccnc76)CC5)CC4)nn3)CC2)cc1C(F)(F)F` [EAR210, N-((1r,4r)-4-(4-Cyano-3-(trifluoromethyl)phenoxy)cyclohexyl)-6-(4-((4-(4-(2,4-dioxotetrahydropyrimidin-1(2H)-yl)-1H-pyrazolo[3,4-b]pyridin-1-yl)piperidin-1-yl)methyl)piperidin-1-yl)pyridazine-3-carboxamide] reads no less than 50%; that for `CC(C)n1ccc2c(N3CCC(=O)NC3=O)cc(C(=O)N3CCN(c4ccc(C(=O)N[C@H]5CC[C@H](Oc6ccc(C#N)c(Cl)c6)CC5)nn4)CC3)cc21` [EAR77, N-((1r,4r)-4-(3-Chloro-4-cyanophenoxy)cyclohexyl)-6-(4-(4-(2,4-dioxotetrahydropyrimidin-1(2H)-yl)-1-isopropyl-1H-indole-6-carbonyl)piperazin-1-yl)pyridazine-3-carboxamide], no less than 50%.
With `N#Cc1ccc(O[C@H]2CC[C@H](NC(=O)c3ccc(N4CCC(CN5CCC6(CC5)CC(n5ccc7c(N8CCC(=O)NC8=O)cccc75)C6)CC4)nn3)CC2)cc1Cl` [EAR185, N-((1r,4r)-4-(3-Chloro-4-cyanophenoxy)cyclohexyl)-6-(4-((2-(4-(2,4-dioxotetrahydropyrimidin-1(2H)-yl)-1H-indol-1-yl)-7-azaspiro[3.5]nonan-7-yl)methyl)piperidin-1-yl)pyridazine-3-carboxamide hydrochloride], the Dmax is no less than 50%.
On the same count and under the same terms, the value for `N#Cc1ccc(O[C@H]2CC[C@H](NC(=O)c3ccc(N4CCC(CN5CC(n6ccc7c(N8CCC(=O)NC8=O)cccc76)C5)CC4)nn3)CC2)cc1Cl` [EAR131, N-((1r,4r)-4-(3-chloro-4-cyanophenoxy)cyclohexyl)-6-(4-((3-(4-(2,4-dioxotetrahydropyrimidin-1(2H)-yl)-1H-indol-1-yl)azetidin-1-yl)methyl)piperidin-1-yl)pyridazine-3-carboxamide] was no less than 50%.
